These results are taken from EP0942911B1, “BENZOPYRANOPYRROLE AND BENZOPYRANOPYRIDINE ALPHA-1 ADRENERGIC COMPOUNDS” (Abbott Laboratories, priority 1996, dated 1998).

Counter-ions that a name gives are not always drawn.

The target of one experiment is T1, α-1A adrenoreceptor (Rattus norvegicus, UniProt P43140).
T1 sequence (P43140 1-466): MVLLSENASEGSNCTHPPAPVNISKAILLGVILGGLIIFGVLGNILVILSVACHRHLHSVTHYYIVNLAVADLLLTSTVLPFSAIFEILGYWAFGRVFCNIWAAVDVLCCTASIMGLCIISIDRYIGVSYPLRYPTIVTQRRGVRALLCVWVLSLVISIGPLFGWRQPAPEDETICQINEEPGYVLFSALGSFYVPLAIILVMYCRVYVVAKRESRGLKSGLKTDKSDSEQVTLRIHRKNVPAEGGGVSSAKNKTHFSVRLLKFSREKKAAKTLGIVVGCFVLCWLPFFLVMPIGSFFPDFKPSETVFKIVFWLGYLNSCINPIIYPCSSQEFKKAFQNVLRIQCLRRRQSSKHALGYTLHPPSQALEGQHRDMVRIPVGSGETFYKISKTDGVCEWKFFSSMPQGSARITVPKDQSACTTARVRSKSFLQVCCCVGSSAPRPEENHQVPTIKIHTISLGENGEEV
The experiment in a line: cell-based. Particulars: phenylephrine-induced contraction; Schild plot. In short, it runs like this:
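Phenylephrine dose-response curves for contraction were repeated against increasing test-agent concentrations. pA2 was derived by Schild plot [[…] vs log molarity of test agent].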
Regarding `COc1cc2nc(N3CCN(C(=O)C4COc5ccccc5O4)CC3)nc(N)c2cc1OC` (stereo not shown) [Doxazosin, doxazosin, reference compound], the “In Vitro Characterization (pA2) Rat Vas” value was determined as 8.69.

The same experiment, now with this note: phenylephrine-induced contraction; Schild plot; read-out: In Vitro Characterization (pA2) Rat Vas (converted).
With `O=c1[nH]c2c(sc3cccnc32)c(=O)n1CCCCN1C[C@@H]2COc3ccccc3[C@@H]2C1` (racemic) [Example 70, 3-[4-((±)-cis-1,2,3,3a,4,9b-hexahydro-[1]-benzopyrano[3,4-c]pyrrol-2-yl)butyl]-pyrido[2',3':4,5]thieno[3,2-d]pyrimidine-2,4(1H,3H)-dione dihydrochloride], the Kb is 6.31 nM. Take `COc1cccc2c1[C@@H]1CN(CCCCn3c(=O)[nH]c4c(sc5c(OC)ccnc54)c3=O)C[C@H]1CO2` [Example 17, 3-[4-((3aS,9bR)-trans-9-Methoxy-1,2,3,3a,4,9b-hexahydro-[1]-benzopyrano[3,4-c]pyrrol-2-yl)butyl]-6-methoxy-pyrido[2',3':4,5]thieno[3,2-d]pyrimidine-2,4(1H,3H)-dione dihydrochloride]: the Kb is 0.112 nM. `COc1cccc2c1[C@@H]1CN(CCCCn3c(=O)[nH]c4c(sc5c(OC)ccnc54)c3=O)C[C@@H]1CO2` [Example 18, 3-[4-((3aR,9bR)-cis-9-Methoxy-1,2,3,3a,4,9b-hexahydro[1]-benzopyrano[3,4-c]pyrrol-2-yl)butyl]-6-methoxy-pyrido[2',3':4,5]thieno[3,2-d]pyrimidine-2,4(1H,3H)-dione dihydrochloride]: the Kb was 0.741 nM. Same read-out and setting: under `COc1cccc2c1[C@@H]1CN(CCCCn3c(=O)[nH]c4c(sc5ccc(Cl)nc54)c3=O)C[C@H]1CO2` [Example 25, 3-[4-((3aS,9bR)-trans-9-Methoxy-1,2,3,3a,4,9b-hexahydro-[1]-benzopyrano[3,4-c]pyrrol-2-yl)butyl]-8-chloro-pyrido[2',3':4,5]thieno[3,2-d]pyrimidine-2,4(1H,3H)-dione dihydrochloride] stands 0.12 nM; under `COc1cccc2c1[C@@H]1CN(CCCCn3c(=O)[nH]c4c(sc5ccncc54)c3=O)C[C@@H]1CO2` [Example 28, 3-[4-((3aR,9bR)-cis-9-Methoxy-1,2,3,3a,4,9b-hexahydro-[1]-benzopyrano[3,4-c]pyrrol-2-yl)butyl]-pyrido[3',4':4,5]thieno[3,2-d]pyrimidine-2,4(1H,3H)-dione dihydrochloride], 0.407 nM. Still for that read-out and setting: under `COc1cccc2c1[C@@H]1CN(CCCCn3c(=O)[nH]c4c(sc5cnccc54)c3=O)C[C@@H]1CO2` [Example 29, 3-[4-((3aR,9bR)-cis-9-Methoxy-1,2,3,3a,4,9b-hexahydro-[1]-benzopyrano[3,4-c]pyrrol-2-yl)butyl]-pyrido[4',3':4,5]thieno[3,2-d]pyrimidine-2,4(1H,3H)-dione dihydrochloride] stands 0.437 nM; under `COc1ccc2sc3c(=O)n(CCCCN4C[C@@H]5COc6cccc(OC)c6[C@@H]5C4)c(=O)[nH]c3c2n1` [Example 30, 3-[4-((3aR,9bR)-cis-9-Methoxy-1,2,3,3a,4,9b-hexahydro-[1]-benzopyrano[3,4-c]pyrrol-2-yl)butyl]-8-methoxy-pyrido[2',3':4,5]thieno[3,2-d]pyrimidine-2,4(1H,3H)-dione hydrochloride], 0.251 nM; under `COc1cnc2sc3c(=O)n(CCCCN4C[C@@H]5COc6cccc(OC)c6[C@@H]5C4)c(=O)[nH]c3c2n1` [Example 31, 3-[4-((3aR,9bR)-cis-9-Methoxy-1,2,3,3a,4,9b-hexahydro-[1]-benzopyrano[3,4-c]pyrrol-2-yl)butyl]-8-methoxy-pyrazino[2',3':4,5]thieno[3,2-d]pyrimidine-2,4(1H,3H)-dione hydrochloride], 0.229 nM. Still for that read-out and setting: to `COc1cccc2c1[C@@H]1CN(CCCCn3c(=O)[nH]c4c(sc5ncccc54)c3=O)C[C@@H]1CO2` [Example 34, 3-[4-((3aR,9bR)-cis-9-Methoxy-1,2,3,3a,4,9b-hexahydro-[1]-benzopyrano[3,4-c]pyrrol-2-yl)butyl]-pyrido[3',2':4,5]thieno[3,2-d]pyrimidine-2,4(1H,3H)-dione hydrochloride] belongs 0.589 nM.

As for `COc1cccc2c1[C@@H]1CN(CCCCn3c(=O)[nH]c4c(sc5nc(C)ccc54)c3=O)C[C@@H]1CO2` [Example 35, 3-[4-((3aR,9bR)-cis-9-Methoxy-1,2,3,3a,4,9b-hexahydro-[1]-benzopyrano[3,4-c]pyrrol-2-yl)butyl]-7-methyl-pyrido[3',2':4,5]thieno[3,2-d]pyrimidine-2,4(1H,3H)-dione hydrochloride], the Kb was 1.26 nM. On the same count and under the same terms, under `COc1cccc2c1[C@@H]1CN(CCCCn3c(=O)[nH]c4c(sc5nccc(OC)c54)c3=O)C[C@@H]1CO2` [Example 36, 3-[4-((3aR,9bR)-cis-9-Methoxy-1,2,3,3a,4,9b-hexahydro-[1]-benzopyrano[3,4-c]pyrrol-2-yl)butyl]-9-methoxy-pyrido[3',2':4,5]thieno[3,2-d]pyrimidine-2,4(1H,3H)-dione hydrochloride] stands 0.537 nM; under `COc1cccc2c1[C@@H]1CN(CCCCn3c(=O)[nH]c4c(sc5ccc(Cl)nc54)c3=O)C[C@@H]1CO2` [Example 37, 3-[4-((3aR,9bR)-cis-9-Methoxy-1,2,3,3a,4,9b-hexahydro-[1]-benzopyrano[3,4-c]pyrrol-2-yl)butyl]-8-chloro-pyrido[2',3':4,5]thieno[3,2-d]pyrimidine-2,4(1H,3H)-dione hydrochloride], 0.204 nM.

In the case of `COc1cccc2c1[C@@H]1CN(CCCCn3c(=O)[nH]c4c(sc5cc(Cl)cnc54)c3=O)C[C@@H]1CO2` [Example 38, 3-[4-((3aR,9bR)-cis-9-Methoxy-1,2,3,3a,4,9b-hexahydro-[1]-benzopyrano[3,4-c]pyrrol-2-yl)butyl]-7-chloro-pyrido[2',3':4,5]thieno[3,2-d]pyrimidine-2,4(1H,3H)-dione hydrochloride], the Kb is 0.282 nM. On the same count and under the same terms, under `COc1cccc2c1[C@@H]1CN(CCCCn3c(=O)[nH]c4c(sc5nc(-c6ccccc6)cnc54)c3=O)C[C@@H]1CO2` [Example 40, 3-[4-((3aR,9bR)-cis-9-Methoxy-1,2,3,3a,4,9b-hexahydro-[1]-benzopyrano[3,4-c]pyrrol-2-yl)butyl]-7-phenyl-pyrazino[2',3':4,5]thieno[3,2-d]pyrimidine-2,4(1H,3H)-dione hydrochloride] stands 3.02 nM; under `COc1cccc2c1[C@@H]1CN(CCCCn3c(=O)[nH]c4c(sc5ccncc54)c3=O)C[C@H]1CO2` [Example 41, 3-[4-((3aS,9bR)-trans-9-Methoxy-1,2,3,3a,4,9b-hexahydro-[1]-benzopyrano[3,4-c]pyrrol-2-yl)butyl]-pyrido[3',4':4,5]thieno[3,2-d]pyrimidine-2,4(1H,3H)-dione dihydrochloride], 0.355 nM; under `COc1cccc2c1[C@@H]1CN(CCCCn3c(=O)[nH]c4c(sc5cnccc54)c3=O)C[C@H]1CO2` [Example 42, 3-[4-((3aS,9bR)-trans-9-Methoxy-1,2,3,3a,4,9b-hexahydro-[1]-benzopyrano[3,4-c]pyrrol-2-yl)butyl]-pyrido[4',3':4,5]thieno[3,2-d]pyrimidine-2,4(1H,3H)-dione dihydrochloride], 0.257 nM. Turning to `COc1cccc2c1[C@@H]1CN(CCCCn3c(=O)[nH]c4c(sc5ncccc54)c3=O)C[C@H]1CO2` [Example 44, 3-[4-((3aS,9bR)-trans-9-Methoxy-1,2,3,3a,4,9b-hexahydro-[1]-benzopyrano[3,4-c]pyrrol-2-yl)butyl]-pyrido[3',2':4,5]thieno[3,2-d]pyrimidine-2,4(1H,3H)-dione hydrochloride], the Kb was 0.11 nM. Regarding `COc1cccc2c1[C@@H]1CN(CCCCn3c(=O)[nH]c4c(sc5nc(C)ccc54)c3=O)C[C@H]1CO2` [Example 45, 3-[4-((3aS,9bR)-trans-9-Methoxy-1,2,3,3a,4,9b-hexahydro-[1]-benzopyrano[3,4-c]pyrrol-2-yl)butyl]-7-methyl-pyrido[3',2':4,5]thieno[3,2-d]pyrimidine-2,4(1H,3H)-dione hydrochloride], the Kb is 0.257 nM. Same read-out and setting: to `COc1ccc2c(n1)sc1c(=O)n(CCCCN3C[C@H]4COc5cccc(OC)c5[C@@H]4C3)c(=O)[nH]c12` [Example 46, 3-[4-((3aS,9bR)-trans-9-Methoxy-1,2,3,3a,4,9b-hexahydro-[1]-benzopyrano[3,4-c]pyrrol-2-yl)butyl]-7-methoxy-pyrido[3',2':4,5]thieno[3,2-d]pyrimidine-2,4(1H,3H)-dione hydrochloride] belongs 0.162 nM; to `COc1cccc2c1[C@@H]1CN(CCCCn3c(=O)[nH]c4c(sc5nc(Cl)ccc54)c3=O)C[C@H]1CO2` [Example 47, 3-[4-((3aS,9bR)-trans-9-Methoxy-1,2,3,3a,4,9b-hexahydro-[1]-benzopyrano[3,4-c]pyrrol-2-yl)butyl]-7-chloro-pyrido[3',2':4,5]thieno[3,2-d]pyrimidine-2,4(1H,3H)-dione hydrochloride], 1.12 nM; to `COc1cccc2c1[C@@H]1CN(CCCCn3c(=O)[nH]c4c(sc5ccc(OC(C)C)nc54)c3=O)C[C@H]1CO2` [Example 51, 3-[4-((3aS,9bR)-trans-9-Methoxy-1,2,3,3a,4,9b-hexahydro-[1]-benzopyrano[3,4-c]pyrrol-2-yl)butyl]-8-isopropoxy-pyrido[2',3':4,5]thieno[3,2-d]pyrimidine-2,4(1H,3H)-dione hydrochloride], 0.631 nM.
